# In the C3SDB collision cross section collection:
# Details: instrument: DT, stepped-field
collision cross section (N2) ([M+Na]+) [Å²],collision cross section (N2) ([M+H]+) [Å²],Compound
225.41,220.71,CCCCCCCCCCCCC(=O)OCC(O)COP(=O)([O-])OCC[N+](C)(C)C (stereo not given) [LPC 13:0]
244.1,,CCCCCCCCCCCCCCCCCCC(=O)OCC(O)COP(=O)([O-])OCC[N+](C)(C)C (stereo not given) [LPC 19:0]
262.43,,CCCCCCCCCCCCCCCCCCCCCCCC(=O)OC[C@@H](O)COP(=O)([O-])OCC[N+](C)(C)C [LPC(24:0)]
239.18,,CC(=O)N[C@H]1[C@H](O[C@H]2[C@@H](O)[C@@H](CO)O[C@@H](O[C@H]3[C@H](O)[C@@H](O)C(O)O[C@@H]3CO)[C@@H]2O)O[C@H](CO)[C@@H](O)[C@@H]1O[C@@H]1O[C@H](CO)[C@H](O)[C@H](O)[C@H]1O (stereo not given in full) [Lacto-N-Tetraose]
301.6,,CC(=O)NC1[C@H](OC2[C@@H](O)[C@H](OC([C@H](O)CO)[C@@H](O)[C@@H](O)C=O)O[C@H](COC3O[C@H](CO)[C@@H](O[C@@H]4O[C@H](CO)[C@H](O)[C@H](O)[C@H]4O)[C@H](O)[C@H]3NC(C)=O)[C@H]2O)O[C@H](CO)[C@@H](O)[C@@H]1OC1O[C@H](CO)[C@H](O)[C@H](O)[C@H]1O (stereo not given in full) [Lacto-N-hexaose]
238.7,234.1,CCCCC/C=C\C\C=C/C=C/C=C/[C@@H](SC[C@H](N)C(=O)NCC(=O)O)[C@@H](O)CCCC(=O)O [Leukotriene D4]
227.9,213.2,CCCCC/C=C\C\C=C/C=C/C=C/[C@@H](SC[C@H](N)C(=O)O)[C@@H](O)CCCC(=O)O [Leukotriene E4]
216.86,,CCCCCCCCCCCCCCCCCCCCCCCC(=O)O [Lignoceric Acid]
140.55,,C=CC(C)(O)CCC=C(C)C (stereo not given) [Linalool]
195.65,,COC(=O)C1=CO[C@@H](O[C@@H]2O[C@H](CO)[C@@H](O)[C@H](O)[C@H]2O)[C@@H]2[C@@H](C)[C@@H](O)C[C@H]12 [Loganin]
279.7,,OC[C@H]1O[C@H](O[C@H]2[C@H](O)[C@@H](O)[C@@H](O[C@H]3[C@H](O)[C@@H](O)[C@@H](O[C@H]4[C@H](O)[C@@H](O)[C@@H](O[C@H]5[C@H](O)[C@@H](O)[C@@H](O[C@H]6[C@H](O)[C@@H](O)C(O)O[C@@H]6CO)O[C@@H]5CO)O[C@@H]4CO)O[C@@H]3CO)O[C@@H]2CO)[C@H](O)[C@@H](O)[C@@H]1O (stereo not given in full) [Maltohexaose]
230.47,,OC[C@H]1O[C@H](O[C@H]2[C@H](O)[C@@H](O)[C@@H](O[C@H]3[C@H](O)[C@@H](O)[C@@H](O[C@H]4[C@H](O)[C@@H](O)[C@@H](O)O[C@@H]4CO)O[C@@H]3CO)O[C@@H]2CO)[C@H](O)[C@@H](O)[C@@H]1O [Maltotetraose]
281.7,,OC[C@H]1O[C@@H](O[C@H]2[C@H](O)[C@H](O)[C@H](O[C@H]3[C@H](O)[C@H](O)[C@H](O[C@H]4[C@H](O)[C@H](O)[C@H](O[C@H]5[C@H](O)[C@H](O)[C@H](O[C@H]6[C@H](O)[C@H](O)C(O)O[C@@H]6CO)O[C@@H]5CO)O[C@@H]4CO)O[C@@H]3CO)O[C@@H]2CO)[C@@H](O)[C@@H](O)[C@@H]1O (stereo not given in full) [Mannohexaose]
,187.2,CCCCC/C=C\C/C=C\CCCCCCCC(=O)OC [Methyl Linoleate]
137.7,,C[C@@](O)(CCO)CC(=O)O [Mevalonic Acid]
143.67,,CC1(O)CCOC(=O)C1 (stereo not given) [Mevalonolactone]
178.52,171.45,CC(=O)Nc1ccc(S(=O)(=O)Nc2cc(C)on2)cc1 [N-Acetyl Sulfamethoxazole]
,133.71,CN[C@@H](CCC(=O)O)C(=O)O [N-Methyl-L-glutamate]
,120.28,c1ccc2ccccc2c1 [Naphthalene]
,241.93,NC(=O)c1ccc[n+]([C@@H]2O[C@H](COP(=O)(O)OP(=O)(O)OC[C@H]3O[C@@H](n4cnc5c(N)ncnc54)[C@H](O)[C@@H]3O)[C@@H](O)[C@H]2O)c1 [Nicotinamide Adenine Dinucleotide (NAD+)]
228.6,218.73,CCCCCCCC/C=C\CCCCCCCC(=O)OC(CC(=O)[O-])C[N+](C)(C)C (stereo not given) [Oleoylcarnitine]
,139.45,O=C(O)CC(=O)C(=O)O [Oxaloacetic Acid]
247.83,,CCCCCCCCCCCCCCCC(=O)O[C@H](COC(=O)CCCCCCCCCCC)COP(=O)(O)OC[C@H](N)C(=O)O [PS(14:0/14:0)]

# Continued, compound first:
Compound,collision cross section (N2) ([M+Na]+) [Å²],collision cross section (N2) ([M+H]+) [Å²]
CCCCC[C@H](O)/C=C/[C@H]1CC2CC(C2)[C@@H]1C/C=C\CCCC(=O)O [Carbocyclic Thromboxane A2],203.6,
OC[C@H]1O[C@@H](O[C@H]2[C@H](O)[C@@H](O)[C@H](O[C@H]3[C@H](O)[C@@H](O)[C@H](O[C@H]4[C@H](O)[C@@H](O)[C@H](O[C@H]5[C@H](O)[C@@H](O)[C@H](O[C@H]6[C@H](O)[C@@H](O)[C@H](O)O[C@@H]6CO)O[C@@H]5CO)O[C@@H]4CO)O[C@@H]3CO)O[C@@H]2CO)[C@H](O)[C@@H](O)[C@@H]1O [Cellohexaose],283.13,
OC[C@H]1O[C@@H](O[C@H]2[C@H](O)[C@@H](O)[C@H](O[C@H]3[C@H](O)[C@@H](O)[C@H](O[C@H]4[C@H](O)[C@@H](O)[C@H](O[C@H]5[C@H](O)[C@@H](O)C(O)O[C@@H]5CO)O[C@@H]4CO)O[C@@H]3CO)O[C@@H]2CO)[C@H](O)[C@@H](O)[C@@H]1O (stereo not given in full) [Cellopentaose],251.04,
O=C/C=C/c1ccccc1 [Cinnamaldehyde],,134.25
O=C(O)/C=C/c1ccccc1 [Cinnamic Acid],,145.31
O=C(O)/C=C(/CC(=O)O)C(=O)O [Cis-Aconitic Acid],146.78,152.21
Nc1ccn([C@@H]2O[C@H](CO)[C@@H](OP(=O)(O)O)[C@H]2O)c(=O)n1 [Cytidine 3'-monophosphate],174.9,170.98
Nc1ccnc(=O)[nH]1 [Cytosine],,121.58
OC1OC[C@@H](O)[C@H](O)[C@H]1O (stereo partly drawn) [D-(+)-Xylose],132.07,
O=C[C@@H](O)[C@H](O)[C@H](O)CO [D-Arabinose],143.27,
O=C[C@H](O)[C@H](O)COP(=O)(O)O [D-Erythrose 4-Phosphate],153.89,
N[C@@H]1C(O)O[C@H](CO)[C@@H](O)[C@@H]1O (stereo partly drawn) [D-Mannosamine],146.73,
O=C(CO)[C@@H](O)[C@H](O)[C@H](O)[C@H](O)CO [D-Sedoheptulose],150.73,
O=C(CO)[C@@H](O)[C@H](O)COP(=O)(O)O [D-Xylulose 5-Phosphate],151.4,
CN(C)C(=O)Nc1ccc(Cl)c(Cl)c1 [Diuron],162.7,153.32
Cc1cc(O)c2c(c1)C(=O)c1cc(O)cc(O)c1C2=O [Emodin],,161.3
O=C1C[C@@H](c2ccc(O)c(O)c2)Oc2cc(O)cc(O)c21 [Eriodictyol],182.17,170.48
OC[C@@H](O)[C@H](O)[C@H](O)[C@@H](O)CO [Galactitol],145.91,
O=c1c(-c2ccc(O)cc2)coc2cc(O)cc(O)c12 [Genistein],177.67,163.3

Compound,collision cross section (N2) ([M+Na]+) [Å²],collision cross section (N2) ([M+H]+) [Å²]
O=C(O)[C@H](O)[C@@H](O)[C@H](O)[C@H](O)CO [Gluconic Acid],149.77,141.89
O=C(O)CNCP(=O)(O)O [Glyphosate],141.17,
NC(N)=NCC(=O)O [Guanidinoacetic Acid],,126.88
CN(C)c1nc(=O)n(C2CCCCC2)c(=O)n1C [Hexazinone],179.49,163.17
CC(C)C1(C)N=C(c2ncccc2C(=O)O)NC1=O (stereo not given) [Imazapyr],176.07,157.81
OC1C(O)C(O)C(O)C(O)C1O (stereo not given) [Inositol],151.95,
O=C(O)CC(C(=O)O)C(O)C(=O)O (stereo not given) [Isocitric Acid],146.78,
COc1cc(-c2oc3cc(O)cc(O)c3c(=O)c2O)ccc1O [Isorhamnetin],195.91,172.96
N[C@@H](CCCC(=O)O)C(=O)O [L-2-Aminoadipic Acid],142.23,136.36
NC(=O)C[C@H](N)C(=O)O [L-Asparagine],131.94,131.54
N[C@@H](CS)C(=O)O [L-Cysteine],151.34,149.57
CS(=N)(=O)CC[C@H](N)C(=O)O (stereo partly drawn) [L-Methionine sulfoximine],143.1,139.3
N[C@@H](Cn1ccc(=O)c(O)c1)C(=O)O [L-Mimosine],,143.47
O=C(CO)[C@@H](O)[C@@H](O)CO [L-Ribulose],132.81,
O=C(O)[C@H](O)[C@@H](O)CO [L-Threonic Acid],136.93,
N[C@H](CO)Cc1cnc[nH]1 [L-histidinol],136.57,130.9
CCCCCCCCCCCCCC(=O)OC[C@@H](O)COP(=O)([O-])OCC[N+](C)(C)C [LPC 14:0],225.77,222
C=CCc1cc(OC)c2c(c1)OCO2 [Myristicin],,141.69
